The nature of series [1]: Solubility in aqueous solutions (Example 10). In kind it is physicochemical. The settings on record: for Solubility in water: Table 12; for solubility: thermodynamic from solid, read-out: Compound 1 Solubility; for Increase in water solubility: relative to Compound 1 as-received (0.0006 mg/mL). Here is the method:
Crystalline and amorphous Compound 1/polymer formulation solubility was determined in different aqueous media (Tables 8A and 8B).
As mentioned earlier, the high solubility of the Compound 1 sodium salt most probably resulted from the conversion of the Compound 1 to its ionized form. In relation to crystalline Compound 1 (as-received sample), formulations containing amorphous form (Tables 11A and 11B) were more soluble than crystalline form under all studied conditions.

A further series deals with animal models of asthma. Particulars: in vivo; cited from earlier work.
Series [2] can be described thus: Solubility in USP simulated gastric and intestinal fluids (Example 11). Particulars: SGF pH 1.2 and SIF pH 6.8, 37° C. In kind it is physicochemical. The procedure: The solubilization profile was obtained of various compositions in USP Simulated Gastric Fluid (SGF) and USP Simulated Intestinal Fluid (SIF) with pH 1.2 and 6.8, respectively. […] The concentration of the solution was based on the hypothesis that the test should simulate a dissolution test for a 100 mg dose strength tablet or capsule in 900 ml of dissolution media.
The solubility was tested for the crystalline compound 1 with a purity of 98.9%, and for the amorphous compositions of Examples 6M and 6O (Lots 031 and 033). The following procedure was followed: • A shaking water bath was filled and water temperature left to equilibrate to 37° C. for 24 hours. • USP simulated gastric fluid was prepared as described in the UPS 31, Solutions: Test solutions. • USP simulated intestinal fluid was prepared as described in the UPS 31, Solutions: Test solutions. • The equivalent of 12.5 mg of Compound 1 was weighed and transferred into a 125 mL Erlenmeyer flask, with 100 mL of medium. […]
The amount of dissolved material was determined with respect to a standard and is reported as the percentage of material dissolved with respect to the standard as well as in absolute mg/ml.

Series [3] deals with moderate persistent asthma. Particulars: Barnes et al., European Respiratory Journal 34, suppl. 53, 2009; cited from earlier work.
Series [4] can be described thus: Solubility screening in solvents (Example 2). Format: physicochemical. Particulars: thermodynamic from solid, read-out: Compound 1 Solubility; for solubility at 12 h: 12 h room temperature. The procedure:
Before carrying out spray drying experiments, a solvent screening was performed to determine potential solvent that will allow sufficient concentration of Compound 1 in spray drying solution. Approximately 50 mg of Compound 1 was added to 100 mL of each evaluated solvent until visual observation of solution saturation. […]

Converted amounts (≈) assume the structure as drawn. Where a name gives a salt, the structure may show the parent alone. Read-outs that look alike come from different tables or passages of the source.

As a reminder, the solubility is the dissolved amount per volume that the medium holds. `Cc1c(Cc2ccc3ccccc3n2)c2cc(F)ccc2n1CC(=O)O` [Compound 1 sodium salt]: the Solubility in water in series [1] amounted to 15370 µg/mL. For the same compound, the “Compound 1 Solubility” value in series [1] (Water) was found to be 15370 µg/mL; in series [1] (pH 1.0) it was 3.6 µg/mL; in series [1] (pH 4.5), 2605 µg/mL; in series [1] (pH 6.8 K) it was 8554 µg/mL; in series [1] (pH 8.0 K) it was 5571 µg/mL; in series [1] (pH 8.0 Na), 1744 µg/mL. The solubility in series [1] (Water + 1% SDS, aqueous with cosolvent or surfactant or cyclodextrin, Water + 1% SDS) was greater than 30000 µg/mL; in series [1] (Water + 1% Tween 20, aqueous with cosolvent or surfactant or cyclodextrin, Water + 1% Tween 20), greater than 26000 µg/mL; in series [1] (Water + 1% Tween 80, aqueous with cosolvent or surfactant or cyclodextrin, Water + 1% Tween 80) it was greater than 21000 µg/mL; in series [1] (pH 6.8 + 1% HTAB, pH 6.8, aqueous with cosolvent or surfactant or cyclodextrin, pH 6.8 + 1% HTAB), 4110 µg/mL; in series [1] (pH 6.8 + 1% Tween 20, pH 6.8, aqueous with cosolvent or surfactant or cyclodextrin, pH 6.8 + 1% Tween 20), 128 µg/mL; in series [1] (pH 6.8 + 1% Tween 80, pH 6.8, aqueous with cosolvent or surfactant or cyclodextrin, pH 6.8 + 1% Tween 80) it was 3220 µg/mL. In series [1] (pH 6.8 Na (sodium buffer), pH 6.8, aqueous buffer, pH 6.8 Na), the solubility was 2490 µg/mL. Further, the “Increase in water solubility” value in series [1] is on record as 2561667%.
On to `Cc1c(Cc2ccc3ccccc3n2)c2cc(F)ccc2n1CC(=O)O` [Compound 1, (5-Fluoro-2-methyl-3-quinolin-2-ylmethyl-indol-1-yl)-acetic acid], for which the “efficacy in animal models of asthma” value in the series with animal models of asthma is on record as “effective”. The “solubility in SGF and SIF” value in series [2] is reported as “very poor solubility”. The “efficacy in a clinical trial with human asthma patients” value in series [3] is “effective”. For the same compound, the solubility is greater than 90000 µg/mL in series [4] (aqueous buffer, Sodium hydroxide 0.5N, at 45° C.) and 2.1 µg/mL (≈ 6.03 µM) in series [1] (aqueous medium pH 1.0, pH 1, simulated gastric fluid, pH 1.0). In addition, the solubility at 12 h was less than 500 µg/mL in series [4] (aqueous buffer, Tris(hydroxymethyl) aminoethane (1% w/v)); less than 500 µg/mL in series [4] (aqueous with cosolvent or surfactant or cyclodextrin, DMSO/H2O (50/50 v/v)); 2000 to 2500 µg/mL (≈ 5740 to 7180 µM) in series [4] (aqueous with cosolvent or surfactant or cyclodextrin, DMSO/H2O (75/25 v/v)); less than 500 µg/mL in series [4] (aqueous with cosolvent or surfactant or cyclodextrin, Hexadecyltrimethylammonium (0.05% w/v)); less than 500 µg/mL in series [4] (aqueous with cosolvent or surfactant or cyclodextrin, Sodium dodecyl sulfate (2% w/v)); less than 500 µg/mL in series [4] (aqueous with cosolvent or surfactant or cyclodextrin, Span 80 (1% v/v)). In addition, the solubility at 12 h in series [4] (aqueous with cosolvent or surfactant or cyclodextrin, Tween 80 (1% v/v)) was less than 500 µg/mL; in series [4] (organic solvent or mixture, Carbon tetrachloride), less than 500 µg/mL; in series [4] (organic solvent or mixture, Chloroform) it was less than 500 µg/mL; in series [4] (organic solvent or mixture, DMSO/DCM (50/50 v/v)), 1000 to 1500 µg/mL (≈ 2870 to 4310 µM); in series [4] (organic solvent or mixture, DMSO/DCM (75/25 v/v)) it was 2500 to 3000 µg/mL (≈ 7180 to 8610 µM); in series [4] (organic solvent or mixture, DMSO/Ethanol (50/50 v/v)) it was 500 to 1000 µg/mL (≈ 1440 to 2870 µM). Moreover, the solubility at 12 h is 500 to 1000 µg/mL (≈ 1440 to 2870 µM) in series [4] (organic solvent or mixture, DMSO/Ethanol (75/25 v/v)); less than 500 µg/mL in series [4] (organic solvent or mixture, Dichloromethane (DCM)); 5500 to 6000 µg/mL (≈ 15800 to 17200 µM) in series [4] (organic solvent or mixture, Dimethyl sulfoxide (DMSO)); less than 500 µg/mL in series [4] (organic solvent or mixture, Toluene); less than 500 µg/mL in series [4] (Purified water). The same compound gave a Solubility in water in series [1] of 0.6 µg/mL (≈ 1.72 µM). For the same compound, the “Compound 1 Solubility” value was determined as 0.6 µg/mL in series [1] (Water); 1.9 µg/mL in series [1] (pH 4.5); 0.3 µg/mL in series [1] (pH 6.8 K); 0.8 µg/mL in series [1] (pH 8.0 K); 0.3 µg/mL in series [1] (pH 8.0 Na).
In series [1], `Cc1c(Cc2ccc3ccccc3n2)c2cc(F)ccc2n1CC(=O)[O-].[Na+]` [Lot 002] came in with a Solubility in water of 16870 µg/mL. The “Compound 1 Solubility” value in series [1] (Water) was 16870 µg/mL; in series [1] (Water + 1% SDS), greater than 17000 µg/mL; in series [1] (Water + 1% Tween 20), greater than 22000 µg/mL; in series [1] (Water + 1% Tween 80), greater than 14000 µg/mL; in series [1] (pH 1.0), 9.1 µg/mL; in series [1] (pH 4.5), 5 µg/mL. Besides, the “Compound 1 Solubility” value in series [1] (pH 6.8 + 1% HTAB) worked out at 3597 µg/mL; in series [1] (pH 6.8 + 1% Tween 20), 162.3 µg/mL; in series [1] (pH 6.8 + 1% Tween 80) it was 226 µg/mL; in series [1] (pH 6.8 K), 0.2 µg/mL; in series [1] (pH 6.8 Na), 0.6 µg/mL; in series [1] (pH 8.0 K), 2740 µg/mL. Besides, in series [1] (pH 8.0 Na), the “Compound 1 Solubility” value was 1782 µg/mL. For the same compound, in series [1], the “Increase in water solubility” value amounted to 2811667%.

These data come from US8703956B2, “Amorphous (5-fluoro-2-methyl-3-quinolin-2-ylmethyl-indol-1-yl)-acetic acid” (Atopix Therapeutics Limited, priority 2011, dated 2014).
